# From the OligoGym collection
# HELM strings list units from the 5' end as sugar, base in round brackets, then linkage (d deoxyribose, r ribose, m 2'-O-methyl, p phosphodiester). Strings are as the collection lists them, not checked against the first reports. ss, as = sense and antisense strand; [lna] = locked nucleic acid (LNA); [una] = unlocked nucleic acid; [hna] = hexitol nucleic acid; [s4r] = 4'-thioribose; [fl2r] = 2'-fluoro
# Details: siRNA
# Also: test system not given here.
row,Substance,target mRNA knockdown [%]
1,RNA1{r(U)p.r(C)p.[fl2r](C)p.r(A)p.r(A)p.r(G)p.r(C)p.r(U)p.r(U)p.r(C)p.r(C)p.r(U)p.r(C)p.r(G)p.r(U)p.[fl2r](U)p.[fl2r](G)p.r(G)p.r(U)p.r(T)p.r(T)}|RNA2{r(A)p.r(C)p.[fl2r](C)p.[fl2r](A)p.r(A)p.r(C)p.r(G)p.r(A)p.r(G)p.r(G)p.r(A)p.r(A)p.r(G)p.r(C)p.r(U)p.[fl2r](U)p.r(G)p.r(G)p.r(A)p.r(T)p.r(T)}$$$RNA1{StrandType:ss}|RNA2{StrandType:as}$,65
2,RNA1{[s4r](C)p.[s4r](G)p.[s4r](U)p.[s4r](A)p.r(C)p.r(G)p.r(C)p.r(G)p.r(G)p.r(A)p.r(A)p.r(U)p.r(A)p.r(C)p.r(U)p.[s4r](U)p.[s4r](C)p.[s4r](G)p.[s4r](A)p.r(T)p.r(T)}|RNA2{r(U)p.r(C)p.r(G)p.r(A)p.r(A)p.r(G)p.r(U)p.r(A)p.r(U)p.r(U)p.r(C)p.r(C)p.r(G)p.r(C)p.r(G)p.r(U)p.r(A)p.[s4r](C)p.[s4r](G)p.r(T)p.r(T)}$$$RNA1{StrandType:ss}|RNA2{StrandType:as}$,92
3,RNA1{r(C)p.r(G)p.r(U)p.r(A)p.r(C)p.r(G)p.r(C)p.r(G)p.r(G)p.r(A)p.r(A)p.r(U)p.r(A)p.m(C)p.m(U)p.m(U)p.m(C)p.m(G)p.m(A)p.r(T)p.r(T)}|RNA2{r(U)p.r(C)p.r(G)p.r(A)p.r(A)p.r(G)p.r(U)p.r(A)p.r(U)p.r(U)p.r(C)p.r(C)p.r(G)p.r(C)p.r(G)p.r(U)p.r(A)p.r(C)p.r(G)p.r(T)p.r(T)}$$$RNA1{StrandType:ss}|RNA2{StrandType:as}$,94.2
4,RNA1{r(A)p.r(G)p.r(A)p.r(A)p.r(G)p.r(G)p.r(A)p.r(C)p.m(U)p.r(A)p.r(C)p.m(U)p.r(A)p.r(A)p.r(C)p.r(C)p.m(U)p.r(C)p.r(C)p.r(T)p.r(T)}|RNA2{r(G)p.r(G)p.r(A)p.r(G)p.r(G)p.m(U)p.m(U)p.r(A)p.r(G)p.m(U)p.r(A)p.r(G)p.m(U)p.r(C)p.r(C)p.m(U)p.m(U)p.r(C)p.m(U)p.r(T)p.r(T)}$$$RNA1{StrandType:ss}|RNA2{StrandType:as}$,49
5,RNA1{r(G)p.r(A)p.m(U)p.r(A)p.r(C)p.r(U)p.r(U)p.r(C)p.r(U)p.r(G)p.r(G)p.r(U)p.r(U)p.r(C)p.r(C)p.r(C)p.r(U)p.r(C)p.r(C)p.r(T)p.r(T)}|RNA2{r(G)p.r(G)p.r(A)p.r(G)p.r(G)p.r(G)p.r(A)p.r(A)p.r(C)p.r(C)p.r(A)p.r(G)p.r(A)p.r(A)p.r(G)p.m(U)p.r(A)p.r(U)p.r(C)p.r(T)p.r(T)}$$$RNA1{StrandType:ss}|RNA2{StrandType:as}$,46
6,RNA1{r(C)p.r(G)p.r(U)p.r(A)p.r(C)p.r(G)p.r(C)p.r(G)p.r(G)p.r(A)p.r(A)p.r(U)p.r(A)p.r(C)p.r(U)p.[s4r](U)p.[s4r](C)p.[s4r](G)p.[s4r](A)p.r(T)p.r(T)}|RNA2{r(U)p.r(C)p.r(G)p.r(A)p.r(A)p.r(G)p.r(U)p.r(A)p.r(U)p.r(U)p.r(C)p.r(C)p.r(G)p.r(C)p.r(G)p.[s4r](U)p.[s4r](A)p.[s4r](C)p.[s4r](G)p.r(T)p.r(T)}$$$RNA1{StrandType:ss}|RNA2{StrandType:as}$,83.4
7,RNA1{r(U)p.m(U)p.r(A)p.r(A)p.r(G)p.r(G)p.r(A)p.r(G)p.r(A)p.r(A)p.r(G)p.r(C)p.m(U)p.m(G)p.r(A)p.r(C)p.r(G)p.r(G)p.r(C)p.r(T)p.r(T)}|RNA2{r(G)p.r(C)p.r(C)p.r(G)p.r(U)p.m(C)p.r(A)p.r(G)p.r(C)p.r(U)p.r(U)p.r(C)p.r(U)p.r(C)p.r(C)p.r(U)p.m(U)p.r(A)p.r(A)p.r(T)p.r(T)}$$$RNA1{StrandType:ss}|RNA2{StrandType:as}$,82
8,RNA1{[s4r](A)p.[s4r](A)p.[s4r](A)p.[s4r](C)p.r(A)p.r(U)p.r(G)p.r(C)p.r(A)p.r(G)p.r(A)p.r(A)p.r(A)p.r(A)p.r(U)p.[s4r](G)p.[s4r](C)p.[s4r](C)p.[s4r](U)p.r(T)p.r(T)}|RNA2{r(C)p.r(A)p.r(G)p.r(C)p.r(A)p.r(U)p.r(U)p.r(U)p.r(U)p.r(C)p.r(U)p.r(G)p.r(C)p.r(A)p.r(U)p.[s4r](G)p.[s4r](U)p.[s4r](U)p.[s4r](U)p.r(T)p.r(T)}$$$RNA1{StrandType:ss}|RNA2{StrandType:as}$,87.3
9,RNA1{r(A)p.r(C)p.r(G)p.r(U)p.m(C)p.r(A)p.r(C)p.r(C)p.r(G)p.r(A)p.r(G)p.r(G)p.r(A)p.r(G)p.r(A)p.r(A)p.r(G)p.m(U)p.m(A)p.r(T)p.r(T)}|RNA2{m(U)p.m(A)p.r(C)p.r(U)p.r(U)p.r(C)p.r(U)p.r(C)p.r(C)p.r(U)p.r(C)p.r(G)p.r(G)p.m(U)p.r(G)p.r(A)p.r(C)p.r(G)p.r(U)p.r(T)p.r(T)}$$$RNA1{StrandType:ss}|RNA2{StrandType:as}$,74
10,RNA1{r(C)p.r(G)p.r(A)p.r(C)p.[fl2r](G)p.r(A)p.r(U)p.r(U)p.r(C)p.r(U)p.r(U)p.r(C)p.[fl2r](U)p.r(A)p.r(C)p.r(U)p.r(C)p.r(A)p.r(A)p.r(T)p.r(T)}|RNA2{r(U)p.[fl2r](U)p.r(G)p.r(A)p.r(G)p.[fl2r](U)p.r(A)p.r(G)p.r(A)p.r(A)p.r(G)p.r(A)p.r(A)p.r(U)p.r(C)p.r(G)p.r(U)p.r(C)p.r(G)p.r(T)p.r(T)}$$$RNA1{StrandType:ss}|RNA2{StrandType:as}$,62
11,RNA1{r(C)p.r(G)p.r(U)p.r(A)p.r(C)p.r(G)p.r(C)p.r(G)p.r(G)p.r(A)p.r(A)p.r(U)p.r(A)p.r(C)p.r(U)p.r(U)p.r(C)p.r(G)p.r(A)p.r(T)p.r(T)}|RNA2{r(U)p.r(C)p.r(G)p.r(A)p.r(A)p.r(G)p.r(U)p.r(A)p.r(U)p.r(U)p.r(C)p.r(C)p.r(G)p.r(C)p.r(G)p.r(U)p.r(A)p.[s4r](C)p.[s4r](G)p.r(T)p.r(T)}$$$RNA1{StrandType:ss}|RNA2{StrandType:as}$,90.2
12,RNA1{r(G)p.r(A)p.r(C)p.r(G)p.[hna](U)p.r(A)p.r(A)p.[hna](A)p.r(C)p.r(G)p.[hna](G)p.r(C)p.r(C)p.[hna](A)p.r(C)p.r(A)p.r(A)p.r(G)p.[hna](U)p.r(U)p.d(T)}|RNA2{r(A)p.r(C)p.r(U)p.r(U)p.r(G)p.r(U)p.r(G)p.r(G)p.r(C)p.r(C)p.r(G)p.r(U)p.r(U)p.r(U)p.r(A)p.r(C)p.r(G)p.r(U)p.[lna](C)p.[lna](G)p.r(C)}$$$RNA1{StrandType:ss}|RNA2{StrandType:as}$,83.9
13,RNA1{r(G)p.r(C)p.r(A)p.r(A)p.r(G)p.r(U)p.r(G)p.r(G)p.r(C)p.r(A)p.r(A)p.r(G)p.r(A)p.r(G)p.r(G)p.r(A)p.r(U)p.m(U)p.r(A)p.r(T)p.r(T)}|RNA2{m(U)p.r(A)p.r(A)p.r(U)p.r(C)p.r(C)p.r(U)p.r(C)p.r(U)p.r(U)p.r(G)p.r(C)p.r(C)p.r(A)p.r(C)p.r(U)p.r(U)p.r(G)p.r(C)p.r(T)p.r(T)}$$$RNA1{StrandType:ss}|RNA2{StrandType:as}$,69
14,RNA1{r(G)p.r(U)p.r(A)p.r(U)p.r(G)p.r(A)p.r(C)p.r(C)p.r(G)p.r(A)p.r(C)p.r(U)p.r(A)p.r(C)p.r(G)p.r(C)p.r(G)p.r(U)p.r(A)p.r(T)p.r(T)}|RNA2{r(U)p.r(U)p.r(C)p.r(A)p.r(G)p.r(U)p.r(G)p.r(U)p.r(G)p.r(A)p.r(U)p.r(G)p.[una](A)p.r(C)p.r(A)p.r(C)p.r(U)p.r(U)p.r(G)p.r(T)p.r(T)}$$$RNA1{StrandType:ss}|RNA2{StrandType:as}$,74
15,RNA1{r(A)p.r(U)p.r(C)p.r(G)p.r(A)p.r(C)p.r(C)p.m(U)p.r(G)p.r(A)p.r(A)p.r(G)p.r(G)p.r(A)p.r(G)p.m(U)p.r(A)p.r(C)p.r(G)p.r(T)p.r(T)}|RNA2{r(C)p.r(G)p.m(U)p.r(A)p.r(C)p.r(U)p.r(C)p.r(C)p.r(U)p.r(U)p.r(C)p.r(A)p.r(G)p.r(G)p.r(U)p.r(C)p.r(G)p.r(A)p.r(U)p.r(T)p.r(T)}$$$RNA1{StrandType:ss}|RNA2{StrandType:as}$,30
16,RNA1{r(C)p.r(U)p.r(U)p.r(A)p.r(C)p.r(G)p.r(C)p.r(U)p.r(G)p.r(A)p.r(G)p.r(U)p.r(A)p.r(C)p.r(U)p.r(U)p.r(C)p.r(G)p.r(A)p.[lna](T)p.[lna](T)}|RNA2{r(U)p.r(C)p.r(G)p.r(A)p.r(A)p.r(G)p.r(U)p.r(A)p.r(C)p.r(U)p.r(C)p.r(A)p.r(G)p.r(C)p.r(G)p.r(U)p.r(A)p.r(A)p.r(G)p.r(T)p.r(T)}$$$RNA1{StrandType:ss}|RNA2{StrandType:as}$,97
17,RNA1{r(G)p.r(G)p.r(A)p.r(C)p.r(A)p.r(U)p.r(U)p.r(C)p.r(A)p.r(G)p.r(A)p.r(A)p.r(C)p.r(A)p.r(A)p.r(G)p.r(A)p.r(A)p.r(A)p.[una](U)p.[una](U)}|RNA2{r(U)p.r(U)p.r(U)p.[una](C)p.r(U)p.r(U)p.r(G)p.r(U)p.r(U)p.r(C)p.r(U)p.r(G)p.r(A)p.r(A)p.r(U)p.r(G)p.r(U)p.r(C)p.r(C)p.[una](U)p.[una](U)}$$$RNA1{StrandType:ss}|RNA2{StrandType:as}$,50
18,RNA1{[fl2r](G)p.r(A)p.[fl2r](C)p.r(C)p.[fl2r](A)p.r(C)p.[fl2r](G)p.r(A)p.[fl2r](A)p.r(G)p.[fl2r](A)p.r(G)p.[fl2r](U)p.r(U)p.[fl2r](A)p.r(A)p.[fl2r](C)p.r(C)p.[fl2r](C)p.r(T)p.r(T)}|RNA2{r(G)p.r(G)p.r(G)p.r(U)p.r(U)p.r(A)p.r(A)p.r(C)p.r(U)p.r(C)p.r(U)p.r(U)p.r(C)p.r(G)p.r(U)p.r(G)p.r(G)p.r(U)p.r(C)p.r(T)p.r(T)}$$$RNA1{StrandType:ss}|RNA2{StrandType:as}$,51
19,RNA1{m(A)p.r(U)p.m(C)p.r(C)p.m(U)p.r(G)p.m(C)p.r(A)p.m(G)p.r(A)p.m(A)p.r(G)p.m(A)p.r(A)p.m(G)p.r(C)p.m(C)p.r(U)p.m(C)p.r(T)p.r(T)}|RNA2{r(G)p.r(A)p.r(G)p.r(G)p.m(C)p.r(U)p.r(U)p.m(C)p.r(U)p.r(U)p.m(C)p.r(U)p.r(G)p.m(C)p.r(A)p.r(G)p.r(G)p.r(A)p.r(U)p.r(T)p.r(T)}$$$RNA1{StrandType:ss}|RNA2{StrandType:as}$,37
20,RNA1{[fl2r](A)p.r(A)p.[fl2r](G)p.r(U)p.[fl2r](A)p.r(G)p.[fl2r](U)p.r(C)p.[fl2r](C)p.r(C)p.[fl2r](C)p.r(C)p.[fl2r](U)p.r(U)p.[fl2r](G)p.r(A)p.[fl2r](A)p.r(G)p.r(A)p.r(T)p.r(T)}|RNA2{r(U)p.r(C)p.r(U)p.r(U)p.r(C)p.r(A)p.r(A)p.r(G)p.r(G)p.r(G)p.r(G)p.r(G)p.r(A)p.r(C)p.r(U)p.r(A)p.r(C)p.r(U)p.r(U)p.r(T)p.r(T)}$$$RNA1{StrandType:ss}|RNA2{StrandType:as}$,53
